Laboratory results as given in ChEMBL document CHEMBL3751767, “Synthesis, in vitro and in vivo anticancer activities of novel 4-substituted 1,2-bis(4-chlorophenyl)-pyrazolidine-3,5-dione derivatives” (Medchemcomm, 2015).

Key:
[1] = Cytotoxicity against human SMMC7721 cells assessed as reduction in cell viability after 72 hrs by MTT assay; type: functional, cell-based; details: SMMC-7721, 72 h
[2] = tested on: MCF7; assay: Cytotoxicity against human MCF7 cells assessed as reduction in cell viability after 72 hrs by MTT assay; type: functional, cell-based; details: MCF7, 72 h
[3] = Cytotoxicity against human EC109 cells assessed as reduction in cell viability after 72 hrs by MTT assay; type: functional, cell-based; details: ECa-109, 72 h
[4] = Cytotoxicity against human MGC803 cells assessed as reduction in cell viability after 72 hrs by MTT assay; type: functional, cell-based; details: MGC-803, 72 h
[5] = Antitumor activity against human MGC803 cells xenografted in nude mouse assessed as reduction in tumor weight at 30 mg/kg, po qd for 28 days relative to control; type: functional, MGC-803; set-up: scale not given: the % may be the effect or the level left

Structure (SMILES)	IC50 [1]	IC50 [2]	IC50 [3]	IC50 [4]	Activity [5]
O=C1C(=Cc2ccc(Br)cc2)C(=O)N(c2ccc(Cl)cc2)N1c1ccc(Cl)cc1	16.6 µM	30.4 µM	12.3 µM	16.9 µM	
COc1cccc(C=C2C(=O)N(c3ccc(Cl)cc3)N(c3ccc(Cl)cc3)C2=O)c1O	64.9 µM	26.7 µM	39 µM	24.3 µM	
O=C1C(=Cc2ccc(Cl)cc2)C(=O)N(c2ccc(Cl)cc2)N1c1ccc(Cl)cc1	30.9 µM	28.5 µM	17.3 µM	32.6 µM	
O=C1C(=Cc2ccc(Cl)cc2Cl)C(=O)N(c2ccc(Cl)cc2)N1c1ccc(Cl)cc1	> 128 µM	> 128 µM	60.2 µM	> 128 µM	
COc1ccc(C=C2C(=O)N(c3ccc(Cl)cc3)N(c3ccc(Cl)cc3)C2=O)cc1OC	> 128 µM	> 128 µM	> 128 µM	> 128 µM	
COc1ccccc1C=C1C(=O)N(c2ccc(Cl)cc2)N(c2ccc(Cl)cc2)C1=O	25.8 µM	26.3 µM	30.4 µM	28.6 µM	
COc1cccc(C=C2C(=O)N(c3ccc(Cl)cc3)N(c3ccc(Cl)cc3)C2=O)c1	30.2 µM	18.1 µM	29 µM	26.6 µM	
CC(=C1C(=O)N(c2ccc(Cl)cc2)N(c2ccc(Cl)cc2)C1=O)c1ccc(O)cc1	57 µM	76.5 µM	55.6 µM	42.8 µM	
O=C1C(=Cc2ccc(F)c(F)c2)C(=O)N(c2ccc(Cl)cc2)N1c1ccc(Cl)cc1	35.8 µM	22 µM	13.1 µM	35.7 µM	
O=C1C(=Cc2c[nH]c3ccccc23)C(=O)N(c2ccc(Cl)cc2)N1c1ccc(Cl)cc1	19.6 µM	34.2 µM	23.4 µM	21.8 µM	
O=C1C(=Cc2ccco2)C(=O)N(c2ccc(Cl)cc2)N1c1ccc(Cl)cc1	19.5 µM	20.3 µM	14.3 µM	12.8 µM	
O=C1C(=Cc2cccc(Cl)c2)C(=O)N(c2ccc(Cl)cc2)N1c1ccc(Cl)cc1	20.2 µM	18.3 µM	22.6 µM	14.4 µM	
CN(C)c1ccc(C=C2C(=O)N(c3ccc(Cl)cc3)N(c3ccc(Cl)cc3)C2=O)cc1	> 128 µM	> 128 µM	> 128 µM	80.2 µM	
COc1cc(C=C2C(=O)N(c3ccc(Cl)cc3)N(c3ccc(Cl)cc3)C2=O)cc(OC)c1OC	29.5 µM	16.2 µM	10.1 µM	17.3 µM	
O=C1C(=Cc2ccc(O)cc2)C(=O)N(c2ccc(Cl)cc2)N1c1ccc(Cl)cc1	20.6 µM	23.2 µM	34.2 µM	19.5 µM	
O=C1C(=Cc2ccc(F)cc2)C(=O)N(c2ccc(Cl)cc2)N1c1ccc(Cl)cc1	23.3 µM	31.4 µM	35.6 µM	26 µM	
COc1cccc(C=C2C(=O)N(c3ccc(Cl)cc3)N(c3ccc(Cl)cc3)C2=O)c1OC	14.1 µM	11.9 µM	6.8 µM	29.6 µM	
COc1ccc(C=C2C(=O)N(c3ccc(Cl)cc3)N(c3ccc(Cl)cc3)C2=O)cc1	> 128 µM	> 128 µM	> 128 µM	> 128 µM	
O=C1C(=Cc2ccccc2)C(=O)N(c2ccc(Cl)cc2)N1c1ccc(Cl)cc1	26.2 µM	20.2 µM	32.7 µM	27.2 µM	
CCC(C)=C1C(=O)N(c2ccc(Cl)cc2)N(c2ccc(Cl)cc2)C1=O	49.2 µM	41.6 µM	41.1 µM	66.5 µM	
O=c1[nH]cc(F)c(=O)[nH]1 [FLUOROURACIL]	14.2 µM	13.5 µM	15.9 µM	9.2 µM	
CC(C)=C1C(=O)N(c2ccc(Cl)cc2)N(c2ccc(Cl)cc2)C1=O	45.6 µM	39.6 µM	42.1 µM	39 µM	
CCCCCOC(=O)Nc1nc(=O)n([C@@H]2O[C@H](C)[C@@H](O)[C@H]2O)cc1F [CAPECITABINE]					62.7%
COc1cc(C=C2C(=O)N(c3ccc(Cl)cc3)N(c3ccc(Cl)cc3)C2=O)ccc1O	64.9 µM	22.8 µM	7.1 µM	21.8 µM	
